# Measurements taken from paper PMC3085482, “Phosphorylation-Dependent Differential Regulation of Plant Growth, Cell Death, and Innate Immunity by the Regulatory Receptor-Like Kinase BAK1” (PLoS Genetics, 2011).
# Positions count from the first letter of the chain named. Numbers in names are those of the source.
# T1: EFR CD (MBP-EFR) (Arabidopsis thaliana, UniProt C0LGT6)
# T1 sequence (C0LGT6 682-1031): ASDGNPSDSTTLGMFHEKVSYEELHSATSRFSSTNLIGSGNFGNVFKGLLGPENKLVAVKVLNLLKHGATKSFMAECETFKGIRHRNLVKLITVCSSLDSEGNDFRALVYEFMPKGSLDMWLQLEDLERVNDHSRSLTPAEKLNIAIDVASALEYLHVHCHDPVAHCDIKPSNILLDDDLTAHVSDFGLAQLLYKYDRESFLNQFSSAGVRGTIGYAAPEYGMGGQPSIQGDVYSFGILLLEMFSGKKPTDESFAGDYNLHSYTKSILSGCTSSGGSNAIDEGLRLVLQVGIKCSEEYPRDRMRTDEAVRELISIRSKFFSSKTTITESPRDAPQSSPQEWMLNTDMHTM
# T2: BRI1 CD (MBP-BRI1) (Arabidopsis thaliana, UniProt O22476)
# T2 sequence (O22476 814-1196): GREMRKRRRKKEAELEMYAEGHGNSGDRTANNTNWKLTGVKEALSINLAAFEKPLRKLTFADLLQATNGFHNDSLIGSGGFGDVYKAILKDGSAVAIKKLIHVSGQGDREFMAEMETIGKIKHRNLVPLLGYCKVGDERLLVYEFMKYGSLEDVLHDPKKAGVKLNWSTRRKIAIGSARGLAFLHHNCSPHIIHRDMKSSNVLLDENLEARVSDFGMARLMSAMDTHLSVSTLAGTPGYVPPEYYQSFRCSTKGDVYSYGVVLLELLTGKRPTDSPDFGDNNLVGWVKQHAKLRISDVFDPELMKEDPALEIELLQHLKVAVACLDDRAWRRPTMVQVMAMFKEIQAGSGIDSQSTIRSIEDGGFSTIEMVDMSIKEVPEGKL
# B1: BAK1 CD (GST-BAK1) (Arabidopsis thaliana) (protein)
# chain: DHFFDVPAEEDPEVHLGQLKRFSLRELQVASDNFSNKNILGRGGFGKVYKGRLADGTLVAVKRLKEERTQGGELQFQTEVEMISMAVHRNLLRLRGFCMTPTERLLVYPYMANGSVASCLRERPESQPPLDWPKRQRIALGSARGLAYLHDHCDPKIIHRDVKAANILLDEEFEAVVGDFGLAKLMDYKDTHVTTAVRGTIGHIAPEYLSTGKSSEKTDVFGYGVMLLELITGQRAFDLARLANDDDVMLLDWVKGLLKEKKLEALVDVDLQGNYKDEEVEQLIQVALLCTQSSPMERPKMSEVVRMLEGDGLAERWEEWQKEEMFRQDFNYPTHHPAVSGWIIGDSTSQIENEYPSGPR
# notes: cytoplasmic domain residues 256-615, N-terminal GST tag kept (pGEX-4T1), E. coli BL21, glutathione purified
# B2: BAK1 CD (GST-BAK1) (Arabidopsis thaliana; C408Y) (protein)
# chain: B1 chain with C153Y
# notes: as for B1
# Columns and labels:
# EFR CD (MBP-EFR) = biological target: T1, EFR CD (MBP-EFR); test: in vitro kinase assay with […]-γ-ATP, SDS-PAGE autoradiography; assay type: biochemical; conditions: 1 µM unlabelled ATP plus [32P]-γ-ATP; labelled compound; myelin basic protein; 10 mM MgCl2, 10 mM MnCl2, pH 7.5, 30 °C
# BRI1 CD (MBP-BRI1) = biological target: T2, BRI1 CD (MBP-BRI1); test: as above; assay type: biochemical; conditions: 1 µM unlabelled ATP plus [32P]-γ-ATP; labelled compound; myelin basic protein; 10 mM MgCl2, 10 mM MnCl2, pH 7.5, 30 °C
# [1] = substrate: Nc1ncnc2c1ncn2[C@@H]1O[C@H](COP(=O)(O)OP(=O)(O)OP(=O)(O)O)[C@@H](O)[C@H]1O; test: autophosphorylation over ATP range, PVDF blot autoradiography (PhosphorImager); assay type: biochemical, Arabidopsis thaliana
molecule,measurement,setting,value
Nc1ncnc2c1ncn2[C@@H]1O[C@H](COP(=O)(O)OP(=O)(O)OP(=O)(O)O)[C@@H](O)[C@H]1O [ATP],"in vitro kinase assay with [32P]-γ-ATP, SDS-PAGE autoradiography",EFR CD (MBP-EFR),EFR CD possessed only minor auto-phosphorylation capacity
same,"in vitro kinase assay with [32P]-γ-ATP, SDS-PAGE autoradiography",BRI1 CD (MBP-BRI1),BRI1 CD had a very strong auto- and trans-phosphorylation capacity
B1,Km,[1]; autophosphorylation of GST-BAK1 CD,∼7 µM
B2,Km,[1]; autophosphorylation of GST-BAK1 CD (BAK1-5 protein),∼25 µM
